The values that follow come from paper PMC9175088 (Drug Metabolism Letters, 2021).

The nature of data set [1]: Metabolism of enflicoxib and E-6132 in cryopreserved hepatocytes. Conditions: male, Wistar, rat.
Assay in data set [2]: as above
The conditions of data set [3]: enantiomers of enflicoxib; cited from earlier work.
Data set [4] is described as follows: Enflicoxib metabolism in intestinal microsomes.
A short description of data set [5]: Enflicoxib metabolism in intestinal microsomes. This is another data set of the same source.
A short description of data set [6]: Secondary phase I metabolism in liver microsomes, unlabeled substrates. The settings on record: rat liver microsomes, positive control 10 µM; experiments with M8 as substrate. It counts as in vitro ADME.
[7] abbreviates: dog hepatocytes, positive control 10 µM.

Where only a bound is given, the exact number is not on record here.

As for `Cc1cc(=O)oc2cc(O)ccc12` [7-hydroxy-4-methylcoumarin], the half-life at 10 µM was < 5.9 min in data set [1] and 10.5 min in data set [2] (male, beagle, dog, cryopreserved hepatocytes). Also, the K in data set [2] (setting [7]) is given as -0.0658.

On to `NS(=O)(=O)c1ccc(N2N=C(C(F)(F)F)C[C@@H]2c2ccc(F)cc2F)cc1` [Metabolite E-6231, (R)-(+)-enflicoxib], for which, in data set [3], the “Pharmacological activity of enantiomer” value is listed as “negligible”.

Regarding `NS(=O)(=O)c1ccc(N2N=C(C(F)(F)F)C[C@H]2c2ccc(F)cc2F)cc1` [Metabolite E-6232, (S)-(-)-enflicoxib], the “Pharmacological activity of enantiomer” value in data set [3] was “active enantiomer”.

For `C[C@]12CC[C@H]3[C@@H](CCC4=CC(=O)CC[C@@]43C)[C@@H]1CC[C@@H]2O` [Testosterone, testosterone], the half-life at 10 µM in data set [4] (male, Sprague-Dawley, rat, intestinal microsomes, pH 7.4) worked out at 133 min; in data set [5] (male, beagle, dog, intestinal microsomes, pH 7.4), 35.5 min. In addition, the K in data set [4] (rat intestinal microsomes, positive control 10 µM) was -0.0052; in data set [2] (setting [7]) it was -0.0914; in data set [5] (dog intestinal microsomes, positive control 10 µM), -0.0195; in data set [6], -0.3314. Besides, the t1/2 in data set [2] (setting [7]) is on record as 7.6 min.

The half-life is the time in which the quantity being followed falls by half. A lower half-life goes with fast loss.
